Values joined by “and” are separate entries in the source; they are usually repeats but may differ in a detail not shown here. Equal entries are not always repeated.
Target: T1, mTOR (Homo sapiens, UniProt P42345)
T1 construct: capturing of endogenously expressed target proteins from cell extracts by a bead-immobilized capturing ligand; endogenous in cells; host or cells: HuT-78 cells (ECACC 88041901), cell lysate
Test: mTOR kinobeads assay (competition-binding assay)
Settings: HuT-78 cell extract, endogenously expressed mTOR, bead-immobilized capturing ligand; mean of multiple experiments; read-out: mean pIC50, affinity for mTOR (converted)
Experimental: The affinity of test compounds for mTOR was determined in the mTOR kinobeads assay. This is a competition-binding assay based on the capturing of endogenously expressed target proteins from cell extracts by a bead-immobilized capturing ligand in presence of the test compound.
HuT-78 cells (European Collection of Authenticated Cell Cultures, 88041901) were cultured according to vendor's instructions. Frozen cell pellets were homogenized in 3× pellet volumes lysis buffer (50 mM Tris-HCl, 0.4% (v/v) Igepal-CA630, 5% glycerol, 150 mM NaCl, 1.5 mMMgCl2, 25 mM NaF, 1 mM sodium vanadate, 1 mM DTT, pH 7.5, supplemented with EDTA-free protease inhibitor tablet (Roche)). The sample was dispersed using a Dounce homogenizer, kept rotating for 30 min at 4° C., and centrifuged for 10 min at 20 000 g at 4° C. The supernatant was centrifuged again for 1 h at 145 000 g. The protein concentration was determined by Bradford assay (BioRad), aliquots were snap frozen in liquid nitrogen and stored at −80° C.
The capturing matrices were generated by derivatizing N-hydroxysuccinimide (NHS) activated Sepharose 4 beads (GE Healthcare) with the functionalized ligands Compound A and Compound C at a ligand density of 5 mM. Remaining NHS-groups were blocked with ethanolamine.
For the mTOR kinobeads assay the matrices were combined in a 1:1 ratio and equilibrated in DP buffer (50 mM Tris-HCl (pH 7.5), 0.4% (v/v) Igepal-CA630, 5% (v/v) glycerol, 150 mM NaCl, 1.5 mM MgCl2, 25 mM NaF, 1 mM Na3VO4, 1 mM dithiothreitol). All steps of the mTOR kinobeads assay were performed at 4° C. or on ice. The cell lysate was diluted with DP buffer to a final concentration of 5 mg/ml and a final detergent concentration of 0.4% (v/v) Igepal-CA630. For the assay 250 μg cell lysate and 2.5 μl capturing matrix per well (final assay volume: 75 μl) were incubated in the presence of test compounds in a 384-well filter plate (MultiScreenHTS HV Filter Plate, 0.45 μm, MZHVNOW50, Merck Millipore). Each plate contained 16 positive (100 μM Compound B) and 16 negative (2% v/v DMSO) control wells. Compounds were tested in a concentration-response applying 1:3 or 1:4 dilution steps for in total 11 data points. DMSO concentration was 2% (v/v). After 2 h incubation on an overhead shaker (Roto-Shake Genie, Scientific Industries Inc.) at 4° C. the non-bound fraction was removed by washing the beads with DP buffer. Proteins retained on the beads were eluted in SDS sample buffer (200 mM Tris (pH 7.4), 250 mM Trizma Base, 4% (w/v) SDS, 20% (v/v) glycerol, 0.01% (w/v) bromophenol blue, 50 mM dithiothreitol) into a collection plate (384 well polypropylene microplate, V-shape, Greiner, 781 280). Eluates were spotted on nitrocellulose membranes (400 nl per spot) using an automated pin-tool liquid transfer (Biomek FX, Beckman). After drying, the membranes were rehydrated in 20% (v/v) ethanol and blocked by incubation with Odyssey blocking buffer (LICOR, 927-40000) for 1 h at room temperature. Blocked membranes were incubated overnight at 25° C. with Odyssey blocking buffer supplemented with a specific anti-mTOR antibody (Cell Signaling, 2972; 1:500) and 0.4% TWEEN-20. Then the membranes were washed in PBST buffer and incubated for 60 minutes at room temperature with the detection antibody (IRDye™ labelled antibody from LI-COR) diluted in Odyssey blocking buffer (LICOR 927-40000) containing 0.2% TWEEN-20. Then the membranes were washed with PBST and finally rinsed twice with PBS buffer to remove residual Tween-20. The membranes were then scanned with the Odyssey® Infrared Imaging System (LI-COR Biosciences). Fluorescence signals were recorded and analyzed according to the instructions of the manufacturer. Concentration response curves were computed with the software Activity Base. All data were normalized to the mean of 16 high (negative control) and 16 low (positive control) control wells on each plate. […]

Compound	IC50
CC[C@H]1COCCN1c1cc(C(C)(C)S(C)(=O)=O)cc(-c2ccc3[nH]c(CN)cc3n2)n1 [Example 21, 1-(5-{6-[(3S)-3-ethylmorpholin-4-yl]-4-(2-methanesulfonylpropan-2-yl)pyridin-2-yl}-1H-pyrrolo[3,2-b]pyridin-2-yl)methanamine]	2.51 to 31.6 nM and 2.51 to 316 nM
CC[C@H]1COCCN1c1cc(C(C)(C)S(C)(=O)=O)cc(-c2ccc3[nH]c(CO)cc3n2)n1 [Example 32]	2.51 to 31.6 nM and 2.51 to 316 nM
CNCc1cc2nc(-c3cc(C(C)(C)S(C)(=O)=O)cc(N4C5CCCC4COC5)n3)ccc2[nH]1 [Example 5, 1-(5-(6-(3-oxa-9-azabicyclo[3.3.1]nonan-9-yl)-4-(2-(methylsulfonyl)propan-2-yl)pyridin-2-yl)-1H-pyrrolo[3,2-b]pyridin-2-yl)-N-methylmethanamine]	2.51 to 316 nM
CCS(=O)(=O)C(C)(C)c1cc(-c2ccc3[nH]c(CNC)cc3n2)nc(N2CCOC[C@@H]2C)c1 [Example 7, (S)-1-(5-(4-(2-(ethylsulfonyl)propan-2-yl)-6-(3-methylmorpholino)pyridin-2-yl)-1H-pyrrolo[3,2-b]pyridin-2-yl)-N-methylmethanamine]	2.51 to 316 nM
CC[C@H]1COCCN1c1cc(C2(S(C)(=O)=O)CCOCC2)cc(-c2ccc3[nH]c(CO)cc3n2)n1 [Example 33, (5-{6-[(3S)-3-ethylmorpholin-4-yl]-4-(4-methanesulfonyloxan-4-yl)pyridin-2-yl}-1H-pyrrolo[3,2-b]pyridin-2-yl)methanol]	2.51 to 31.6 nM and 2.51 to 316 nM
CNCc1cc2nc(-c3cc(C(C)(C)S(C)(=O)=O)cc(N4[C@@H]5CC[C@H]4COC5)n3)ccc2[nH]1 [Example 3, 1-(5-(6-((1R,5S)-3-oxa-8-azabicyclo[3.2.1]octan-8-yl)-4-(2-(methylsulfonyl)propan-2-yl)pyridin-2-yl)-1H-pyrrolo[3,2-b]pyridin-2-yl)-N-methylmethanamine]	2.51 to 316 nM
CNCc1cc2nc(-c3cc(C(C)(C)S(C)(=O)=O)cc(N4CCOC[C@@H]4C)n3)ccc2[nH]1 [Example 2, (S)—N-methyl-1-(5-(6-(3-methylmorpholino)-4-(2-(methylsulfonyl)propan-2-yl)pyridin-2-yl)-1H-pyrrolo[3,2-b]pyridin-2-yl)methanamine]	2.51 to 31.6 nM and 2.51 to 316 nM
CNCc1cc2nc(-c3cc(C4(S(C)(=O)=O)CCOCC4)cc(N4C5CCC4COC5)n3)ccc2[nH]1 [Example 40, ({5-[4-(4-methanesulfonyloxan-4-yl)-6-{3-oxa-8-azabicyclo[3.2.1]octan-8-yl}pyridin-2-yl]-1H-pyrrolo[3,2-b]pyridin-2-yl}methyl)(methyl)amine]	2.51 to 316 nM
CNCc1cc2nc(-c3cc(C(F)(F)S(C)(=O)=O)cc(N4CCOC[C@@H]4C)n3)ccc2[nH]1 [Example 12, (S)-1-(5-(4-(difluoro(methylsulfonyl)methyl)-6-(3-methylmorpholino)pyridin-2-yl)-1H-pyrrolo[3,2-b]pyridin-2-yl)-N-methylmethanamine]	2.51 to 316 nM
CC[C@H]1COCCN1c1cc(C2(S(C)(=O)=O)CCOCC2)cc(-c2ccc3[nH]c(CN)cc3n2)n1 [Example 23, 1-(5-{6-[(3S)-3-ethylmorpholin-4-yl]-4-(4-methanesulfonyloxan-4-yl)pyridin-2-yl}-1H-pyrrolo[3,2-b]pyridin-2-yl)methanamine]	2.51 to 31.6 nM and 2.51 to 316 nM
CNCc1cc2nc(-c3cc(C(C)(C)S(C)(=O)=O)cc(N4CC5CCC(C4)O5)n3)ccc2[nH]1 [Example 4, 1-(5-(6-(8-oxa-3-azabicyclo[3.2.1]octan-3-yl)-4-(2-(methylsulfonyl)propan-2-yl)pyridin-2-yl)-1H-pyrrolo[3,2-b]pyridin-2-yl)-N-methylmethanamine]	2.51 to 31.6 nM and 2.51 to 316 nM

Further lines, results first:

IC50	Compound
2.51 to 31.6 nM and 2.51 to 316 nM	CNCc1cc2nc(-c3cc(CS(C)(=O)=O)cc(N4CCOC[C@@H]4C)n3)ccc2[nH]1 [Example 6, (S)—N-methyl-1-(5-(6-(3-methylmorpholino)-4-((methylsulfonyl)methyl)pyridin-2-yl)-1H-pyrrolo[3,2-b]pyridin-2-yl)methanamine]
2.51 to 31.6 nM and 2.51 to 316 nM	CC[C@H]1COCCN1c1cc(C2(S(C)(=O)=O)CC2)cc(-c2ccc3[nH]c(CNC)cc3n2)n1 [Example 19, [(5-{6-[(3S)-3-ethylmorpholin-4-yl]-4-(1-methanesulfonylcyclopropyl)pyridin-2-yl}-1H-pyrrolo[3,2-b]pyridin-2-yl)methyl](methyl)amine]
2.51 to 31.6 nM and 2.51 to 316 nM	CC[C@H]1COCCN1c1cc(C2(S(=O)(=O)N(C)C)CCOCC2)cc(-c2ccc3[nH]c(CNC)cc3n2)n1 [Example 31, 4-{2-[(3S)-3-ethylmorpholin-4-yl]-6-{2-[(methylamino)methyl]-1H-pyrrolo[3,2-b]pyridin-5-yl}pyridin-4-yl}-N,N-dimethyloxane-4-sulfonamide]
2.51 to 31.6 nM and 2.51 to 316 nM	CC[C@H]1COCCN1c1cc(CS(=O)(=O)C2CC2)cc(-c2ccc3[nH]c(CNC)cc3n2)n1 [Example 10, (S)-1-(5-(4-((cyclopropylsulfonyl)methyl)-6-(3-ethylmorpholino)pyridin-2-yl)-1H-pyrrolo[3,2-b]pyridin-2-yl)-N-methylmethanamine]
2.51 to 31.6 nM and 2.51 to 316 nM	CNCc1cc2nc(-c3cc(CS(C)(=O)=O)cc(N4CC5CCC(C4)O5)n3)ccc2[nH]1 [Example 25, ({5-[4-(methanesulfonylmethyl)-6-{8-oxa-3-azabicyclo[3.2.1]octan-3-yl}pyridin-2-yl]-1H-pyrrolo[3,2-b]pyridin-2-yl}methyl)(methyl)amine]
2.51 to 31.6 nM and 2.51 to 316 nM	CC[C@H]1COCCN1c1cc(CS(C)(=O)=O)cc(-c2ccc3[nH]c(CO)cc3n2)n1 [Example 34, (5-{6-[(3S)-3-ethylmorpholin-4-yl]-4-(methanesulfonylmethyl)pyridin-2-yl}-1H-pyrrolo[3,2-b]pyridin-2-yl)methanol]
2.51 to 316 nM	CNCc1cc2nc(-c3cc(C4(S(C)(=O)=O)CC4)cc(N4CCOC[C@@H]4C)n3)ccc2[nH]1 [Example 20, ({5-[4-(1-methanesulfonylcyclopropyl)-6-[(3S)-3-methylmorpholin-4-yl]pyridin-2-yl]-1H-pyrrolo[3,2-b]pyridin-2-yl}methyl)(methyl)amine]
2.51 to 316 nM	CC[C@H]1COCCN1c1cc(C(C)(C)S(=O)(=O)C2CC2)cc(-c2ccc3[nH]c(CNC)cc3n2)n1 [Example 9, (S)-1-(5-(4-(2-(cyclopropylsulfonyl)propan-2-yl)-6-(3-ethylmorpholino)pyridin-2-yl)-1H-pyrrolo[3,2-b]pyridin-2-yl)-N-methylmethanamine]
2.51 to 31.6 nM and 2.51 to 316 nM	CC[C@H]1COCCN1c1cc(CS(=O)(=O)N(C)C)cc(-c2ccc3[nH]c(CNC)cc3n2)n1 [Example 17, (S)-1-(2-(3-ethylmorpholino)-6-(2-((methylamino)methyl)-1H-pyrrolo[3,2-b]pyridin-5-yl)pyridin-4-yl)-N,N-dimethylmethanesulfonamide]
2.51 to 316 nM	CC[C@H]1COCCN1c1cc(C2(S(=O)(=O)C3CC3)CC2)cc(-c2ccc3[nH]c(CNC)cc3n2)n1 [Example 11, (S)-1-(5-(4-(1-(cyclopropylsulfonyl)cyclopropyl)-6-(3-ethylmorpholino)pyridin-2-yl)-1H-pyrrolo[3,2-b]pyridin-2-yl)-N-methylmethanamine]
2.51 to 31.6 nM and 2.51 to 316 nM	CC[C@H]1COCCN1c1cc(CS(C)(=O)=O)cc(-c2ccc3[nH]c(CNC)cc3n2)n1 [Example 13, (S)-1-(5-(6-(3-ethylmorpholino)-4-((methylsulfonyl)methyl)pyridin-2-yl)-1H-pyrrolo[3,2-b]pyridin-2-yl)-N-methylmethanamine]
